Laboratory results from BigSolDB 2.1.

Clc1cc(Cl)cc(Cl)c1
solubility (mole fraction)
Conditions	in acetone	in cyclohexane	in ethyl acetate	in isobutanol	in isopropanol	in n-butanol	in n-propanol	in toluene
273.15 K	0.0419	–	0.0928	0.0246	0.0144	0.036	0.0211	0.169
275.65 K	0.0472	–	0.102	0.028	0.0167	0.0406	0.0238	0.184
278.15 K	0.0524	–	0.113	0.0321	0.0195	0.0467	0.0273	0.199
280.65 K	0.0581	0.131	0.123	0.0367	0.0225	0.0529	0.0313	0.218
283.15 K	0.0644	0.147	0.137	0.042	0.0256	0.0592	0.0359	0.24
285.65 K	0.0718	0.165	0.151	0.0478	0.0297	0.0679	0.0406	0.26
288.15 K	0.079	0.186	0.164	0.0545	0.0339	0.0767	0.0466	0.287
290.65 K	0.0876	0.207	0.179	0.0616	0.0384	0.0852	0.0532	0.311
293.15 K	0.0963	0.231	0.195	0.0708	0.0441	0.0969	0.0598	0.337
295.65 K	0.106	0.255	0.213	0.0804	0.0509	0.107	0.0677	0.368
298.15 K	0.116	0.286	0.234	0.091	0.058	0.122	0.0764	0.399
300.65 K	0.129	0.318	0.253	0.102	0.0649	0.136	0.0853	0.427
303.15 K	0.14	0.35	0.274	0.117	0.074	0.15	0.0973	0.463
305.65 K	0.154	0.391	0.298	0.131	0.0849	0.166	0.109	0.5
308.15 K	0.171	0.434	0.325	0.147	0.0969	0.185	0.122	0.539
310.65 K	0.192	0.481	0.352	0.166	0.11	0.207	0.138	0.575
313.15 K	0.213	0.528	0.38	0.191	0.127	0.233	0.158	0.619
